Primed or numbered codes have the meaning given here. FAM = 5(6)-carboxyfluorescein; FAM″ = C-terminal FAM dye
test system: NSC-34 cells; assay: Evaluation on cell membrane permeability by flow cytometry; type: cell-based, mouse; conditions: 10 μM construct (additive), 0.5% DMSO, 20 hours incubation, flow cytometer FL2
Description: As the eukaryotic cells, NSC-34 cells (mouse motor neuron-like hybrid cell line) were used and the cell membrane permeability of the constructs 1 to 4 was analyzed. In Examples 1 to 4, the prepared samples 1 to 4 were used, respectively, and in Example 5, a FAM solution was used.
The NSC-34 cells were cultured in 10% fetal bovine serum (FBS)-containing Dulbecco's modified Eagle's medium (DMEM (Cat No. 044-29765, manufactured by FUJIFILM Wako Pure Chemical Corporation)), which is a normal culture medium.
The NSC-34 cells that adhered to a culture plate were cleaned with PBS and then, a 0.25%-trypsin/EDTA solution was added thereto, and incubation was performed for three minutes at 37° C. After the incubation, the aforementioned 10% FBS-containing DMEM was added to deactivate trypsin and then, five-minute centrifugal separation was performed at 150×g to precipitate the cells. After the supernatant generated by the centrifugal separation was removed, the 10% FBS-containing DMEM was added to the precipitate (cell pellet) to prepare a cell suspension of about 2×10^5 cells/mL. The cell suspension was added by 1 mL to a well of a commercially available six-hole (well) plate (manufactured by AGC TECHNO GLASS Co., Ltd.) so as to seed the cell (about 2×10^5 cells/well). In addition, the 2 mM sample solution 1 was diluted with the 10% FBS-containing DMEM to prepare the sample solution 1 in which the concentration of the sample 1 was 20 μM. Then, 1 mL of the 20 μM sample solution 1 was added to the well (that is, so that the concentration of the sample 1 became 10 μM and the DMSO concentration became 0.5% in the culture solution in the well). After that, the cell was incubated for 20 hours at 37° C. under a 5% CO2 condition.
After the 20-hour incubation, the culture supernatant was removed from the well and the cells in the well were cleaned twice with 1 mL of PBS. Next, 200 μL of the 0.25% trypsin/EDTA solution was added to the well and the incubation was performed for three minutes at 37° C. After the incubation, 400 μL of the 10% FBS-containing DMEM was added to the well to deactivate the trypsin. Subsequently, the cell suspension in the well was transferred to a tube and the cells were collected. After that, 600 μL of PBS was added further to the well to clean the well. Then, PBS in the well was transferred to the tube, so that the cells remaining in the well were collected in the tube. This tube was subjected to five-minute centrifugal separation at 4° C. under a condition of 210×g. After the centrifugal separation, the supernatant was removed and the precipitate (cell pellet) was suspended (cleaned) with 1 mL of PBS, which was followed by the centrifugal separation under the same condition as that described above. After this operation was repeated twice, the supernatant was removed and thus, the cells (cell pellet) cultured in a culture medium containing the sample 1 were obtained.
Regarding the obtained cells (cell pellet), the cell membrane permeability of the sample 1 was analyzed using a flow cytometer. […]
Using the aforementioned flow cytometer, gating based on forward scatter (FSC) and side scatter (SSC) was performed to set a gate about a cell group to be analyzed, and the fluorescence intensity was measured about the cell group in this gate. […] The fluorescence intensity was measured using a fluorescence detector FL2 of the flow cytometer (optimum detection wavelength around 543 nm) capable of detecting the fluorescence wavelength of FAM. […]

Substance	MFI (median fluorescence intensity)
5(6)-carboxyfluorescein [Example 5, reference compound]	8.15
Ac-KKRTLRKNSNRKKR-FAM (Ac-KKRTLRKNSNRKKR-{FAM}) [Example 4]	16.7
Ac-KKRTLRKSNNRKKR-FAM (Ac-KKRTLRKSNNRKKR-{FAM}) [Example 3]	13.6
Ac-KKRTLRKSNSRKKR-FAM (Ac-KKRTLRKSNSRKKR-{FAM″}) [Example 1]	11.2
Ac-KKRTLRKSSNRKKR-FAM (Ac-KKRTLRKSSNRKKR-{FAM″}) [Example 2]	12.9

— patent US20250382331A1, “Carrier Peptide Fragment and Use Thereof” (TOAGOSEI CO., LTD., priority 2022, published 2025)
